Test results taken from patent US9493446B2, “Orexin receptor antagonists which are [ortho bi-(hetero-)aryl]-[2-(meta bi-(hetero-)aryl)-pyrrolidin-1-yl]-methanone derivatives” (Actelion Pharmaceuticals Ltd, priority 2012, dated 2016).
pIC50: −log10 of the molar value. Like-named read-outs stand apart in the source and are kept apart here.

Legend:
[1] = biological target: human orexin-2 receptor (Homo sapiens (Human), UniProt O43614); assay: Intracellular calcium measurement (FLIPR), CHO cells expressing human orexin-2 receptor, 3 nM orexin-A; format: cell-based; conditions: read-out: IC50 OX2
Chain of human orexin-2 receptor (O43614 whole entry): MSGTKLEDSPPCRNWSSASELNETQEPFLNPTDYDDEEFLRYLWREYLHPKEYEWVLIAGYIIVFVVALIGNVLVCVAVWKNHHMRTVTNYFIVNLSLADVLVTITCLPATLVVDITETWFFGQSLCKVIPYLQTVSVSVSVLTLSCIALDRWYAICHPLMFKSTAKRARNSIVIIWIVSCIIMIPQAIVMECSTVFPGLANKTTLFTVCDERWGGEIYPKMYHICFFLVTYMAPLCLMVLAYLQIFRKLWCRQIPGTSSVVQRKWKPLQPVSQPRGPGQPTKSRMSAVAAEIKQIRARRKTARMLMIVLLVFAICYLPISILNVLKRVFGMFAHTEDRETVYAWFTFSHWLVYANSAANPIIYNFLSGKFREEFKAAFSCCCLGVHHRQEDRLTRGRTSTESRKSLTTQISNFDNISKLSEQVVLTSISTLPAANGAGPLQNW
Summary of the method: (§1)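 Antagonist is added 120 min before agonist. Fluo-4 AM-loaded CHO cells carry human orexin-1 or orexin-2 receptor, and calcium is read by FLIPR.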

[2] = biological target: orexin-1 (Homo sapiens (Human), UniProt O43613); assay: Intracellular calcium measurement (FLIPR), CHO cells expressing human orexin-1 receptor, 3 nM orexin-A; format: cell-based; conditions: read-out: IC50 OX1
Chain of orexin-1 (O43613 whole entry): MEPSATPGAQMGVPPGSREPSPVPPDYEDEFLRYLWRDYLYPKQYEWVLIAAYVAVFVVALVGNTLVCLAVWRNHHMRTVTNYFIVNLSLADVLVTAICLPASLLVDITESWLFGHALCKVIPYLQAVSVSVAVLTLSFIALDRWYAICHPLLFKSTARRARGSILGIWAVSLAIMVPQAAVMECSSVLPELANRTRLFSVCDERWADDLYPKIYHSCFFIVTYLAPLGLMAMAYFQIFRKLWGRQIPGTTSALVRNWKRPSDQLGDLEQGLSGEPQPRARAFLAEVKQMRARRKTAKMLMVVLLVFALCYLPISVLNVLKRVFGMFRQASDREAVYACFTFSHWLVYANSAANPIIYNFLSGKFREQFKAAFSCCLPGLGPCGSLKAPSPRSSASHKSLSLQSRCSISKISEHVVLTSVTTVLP
Summary of the method: as §1

[3] = CHO cells expressing human orexin-2 receptor, FLIPR, 3 nM orexin-A, geometric mean if determined several times
[4] = CHO cells expressing human orexin-1 receptor, FLIPR, 3 nM orexin-A, geometric mean if determined several times

SMILES	pIC50 [1, 3]	pIC50 [2, 4]	pIC50 [1]	pIC50 [2]
COc1cc(C(=O)N2CCC[C@H]2c2noc(-c3cccc(C)c3C)n2)c(-n2nccn2)cc1Cl [compound 406]	8.70	7.66		
CCc1ccccc1-c1nc([C@@H]2CCCN2C(=O)c2cc(OC)c(Cl)cc2-n2nccn2)no1 [compound 407]	8.52	7.82		
COc1cc(C(=O)N2CCC[C@H]2c2noc(-c3cc(C)ccc3C)n2)c(-n2nccn2)cc1Cl [compound 408]	8.70	7.51		
COc1cc(C)cc(-c2nc([C@@H]3CCCN3C(=O)c3cc(C)ccc3-n3nccn3)no2)c1 [compound 409, {(S)-2-[5-(3-Methoxy-5-methyl-phenyl)-[1,2,4]oxadiazol-3-yl]-pyrrolidin-1-yl}-(5-methyl-2-[1,2,3]triazol-2-yl-phenyl)-methanone]	7.92	7.35		
COc1ccc(C)c(-c2nc([C@@H]3CCCN3C(=O)c3cc(C)ccc3-n3nccn3)no2)c1 [compound 410, {(S)-2-[5-(5-Methoxy-2-methyl-phenyl)-[1,2,4]oxadiazol-3-yl]-pyrrolidin-1-yl}-(5-methyl-2-[1,2,3]triazol-2-yl-phenyl)-methanone]	7.85	6.85		
COc1ccc(C)cc1-c1nc([C@@H]2CCCN2C(=O)c2cc(C)ccc2-n2nccn2)no1 [compound 411, {(S)-2-[5-(2-Methoxy-5-methyl-phenyl)-[1,2,4]oxadiazol-3-yl]-pyrrolidin-1-yl}-(5-methyl-2-[1,2,3]triazol-2-yl-phenyl)-methanone]	8.05	7.00		
COc1cc(C)cc(-c2nc([C@@H]3CCCN3C(=O)c3ccc(C)cc3-n3nccn3)no2)c1 [compound 412, {(S)-2-[5-(3-Methoxy-5-methyl-phenyl)-[1,2,4]oxadiazol-3-yl]-pyrrolidin-1-yl}-(4-methyl-2-[1,2,3]triazol-2-yl-phenyl)-methanone]	7.10	6.96		
COc1ccc(C)c(-c2nc([C@@H]3CCCN3C(=O)c3ccc(C)cc3-n3nccn3)no2)c1 [compound 413, {(S)-2-[5-(5-Methoxy-2-methyl-phenyl)-[1,2,4]oxadiazol-3-yl]-pyrrolidin-1-yl}-(4-methyl-2-[1,2,3]triazol-2-yl-phenyl)-methanone]	7.52	6.79		
COc1ccc(C)cc1-c1nc([C@@H]2CCCN2C(=O)c2ccc(C)cc2-n2nccn2)no1 [compound 414, {(S)-2-[5-(2-Methoxy-5-methyl-phenyl)-[1,2,4]oxadiazol-3-yl]-pyrrolidin-1-yl}-(4-methyl-2-[1,2,3]triazol-2-yl-phenyl)-methanone]	7.46	6.48		
COc1cc(C)cc(-c2nc([C@@H]3CCCN3C(=O)c3cc(Cl)ccc3-n3nccn3)no2)c1 [compound 415]		6.71	7.31	
COc1ccc(C)c(-c2nc([C@@H]3CCCN3C(=O)c3cc(Cl)ccc3-n3nccn3)no2)c1 [compound 416]	7.70			6.82
COc1ccc(C)cc1-c1nc([C@@H]2CCCN2C(=O)c2cc(Cl)ccc2-n2nccn2)no1 [compound 417]	7.68	6.57		
COc1cc(C)cc(-c2nc([C@@H]3CCCN3C(=O)c3ccc(Cl)cc3-n3nccn3)no2)c1 [compound 418]	7.60			7.07
COc1ccc(C)c(-c2nc([C@@H]3CCCN3C(=O)c3ccc(Cl)cc3-n3nccn3)no2)c1 [compound 419]		6.68	7.80	
Cc1ccc(-n2nccn2)c(C(=O)N2CCC[C@H]2c2cc(-c3cccc(C)c3C)no2)c1 [compound 422, {(S)-2-[3-(2,3-Dimethyl-phenyl)-isoxazol-5-yl]-pyrrolidin-1-yl}-(5-methyl-2-[1,2,3]triazol-2-yl-phenyl)-methanone]	8.40	6.82		
Cc1cc(C)cc(-c2cc([C@@H]3CCCN3C(=O)c3cc(C)ccc3-n3nccn3)on2)c1 [compound 423, {(S)-2-[3-(3,5-Dimethyl-phenyl)-isoxazol-5-yl]-pyrrolidin-1-yl}-(5-methyl-2-[1,2,3]triazol-2-yl-phenyl)-methanone]	7.41	7.09		
Cc1ccc(-n2nccn2)c(C(=O)N2CCC[C@H]2c2cc(-c3cccc(Cl)c3C)no2)c1 [compound 424]	8.40	8.10		
Cc1ccc(-n2nccn2)c(C(=O)N2CCC[C@H]2c2cc(-c3ccccc3OC(F)(F)F)no2)c1 [compound 425, (5-Methyl-2-[1,2,3]triazol-2-yl-phenyl)-{(S)-2-[3-(2-trifluoromethoxy-phenyl)-isoxazol-5-yl]-pyrrolidin-1-yl}-methanone]	8.00	8.40		

SMILES	pIC50 [1, 3]	pIC50 [2, 4]	pIC50 [1]	pIC50 [2]
COc1ncccc1-c1cc([C@@H]2CCCN2C(=O)c2cc(C)ccc2-n2nccn2)on1 [compound 426, {(S)-2-[3-(2-Methoxy-pyridin-3-yl)-isoxazol-5-yl]-pyrrolidin-1-yl}-(5-methyl-2-[1,2,3]triazol-2-yl-phenyl)-methanone]	7.52	6.38		
Cc1ccc(-n2nccn2)c(C(=O)N2CCC[C@H]2c2cc(-c3cccnc3OC(C)C)no2)c1 [compound 427, {(S)-2-[3-(2-Isopropoxy-pyridin-3-yl)-isoxazol-5-yl]-pyrrolidin-1-yl}-(5-methyl-2-[1,2,3]triazol-2-yl-phenyl)-methanone]	6.53	7.10		
CCOc1ncccc1-c1cc([C@@H]2CCCN2C(=O)c2cc(C)ccc2-n2nccn2)on1 [compound 428, {(S)-2-[3-(2-Ethoxy-pyridin-3-yl)-isoxazol-5-yl]-pyrrolidin-1-yl}-(5-methyl-2-[1,2,3]triazol-2-yl-phenyl)-methanone]	7.55	7.17		
COc1c(F)cccc1-c1cc([C@@H]2CCCN2C(=O)c2cc(C)ccc2-n2nccn2)on1 [compound 429, {(S)-2-[3-(3-Fluoro-2-methoxy-phenyl)-isoxazol-5-yl]-pyrrolidin-1-yl}-(5-methyl-2-[1,2,3]triazol-2-yl-phenyl)-methanone]	7.59	7.01		
Cc1ccc(-n2nccn2)c(C(=O)N2CCC[C@H]2c2cc(-c3ccccc3)on2)c1 [compound 430, (5-Methyl-2-[1,2,3]triazol-2-yl-phenyl)-[(S)-2-(5-phenyl-isoxazol-3-yl)-pyrrolidin-1-yl]-methanone]	7.29	6.44		
Cc1ccc(-n2nccn2)c(C(=O)N2CCC[C@H]2c2cc(-c3cccc(Cl)c3C)on2)c1 [compound 431]	8.70	7.72		
COc1cc(C(=O)N2CCC[C@H]2c2cc(-c3ccccc3)on2)c(-n2nccn2)cc1C [compound 432, (5-Methoxy-4-methyl-2-[1,2,3]triazol-2-yl-phenyl)-[(S)-2-(5-phenyl-isoxazol-3-yl)-pyrrolidin-1-yl]-methanone]	7.80	6.49		
COc1cc(C(=O)N2CCC[C@H]2c2cc(-c3cccc(Cl)c3C)on2)c(-n2nccn2)cc1C [compound 433]	9.00	7.72		
Cc1ccc(-n2nccn2)c(C(=O)N2CCC[C@H]2c2cc(-c3ccccc3OC(F)(F)F)on2)c1 [compound 434, (5-Methyl-2-[1,2,3]triazol-2-yl-phenyl)-{(S)-2-[5-(2-trifluoromethoxy-phenyl)-isoxazol-3-yl]-pyrrolidin-1-yl}-methanone]	8.30	7.68		
Cc1ccc(C(=O)N2CCC[C@H]2c2cc(-c3ccccc3OC(F)(F)F)on2)c(-n2nccn2)c1 [compound 435, (4-Methyl-2-[1,2,3]triazol-2-yl-phenyl)-{(S)-2-[5-(2-trifluoromethoxy-phenyl)-isoxazol-3-yl]-pyrrolidin-1-yl}-methanone]	7.51	7.46		
COc1cc(C(=O)N2CCC[C@H]2c2cc(-c3ccccc3OC(F)(F)F)on2)c(-n2nccn2)cc1C [compound 436, (5-Methoxy-4-methyl-2-[1,2,3]triazol-2-yl-phenyl)-{(S)-2-[5-(2-trifluoromethoxy-phenyl)-isoxazol-3-yl]-pyrrolidin-1-yl}-methanone]	7.89	7.31		
COc1cc(C(=O)N2CCC[C@H]2c2cc(-c3ccccc3OC(F)(F)F)on2)c(-n2nccn2)cc1Cl [compound 437]	7.82			7.21
Cc1ccc(-n2nccn2)c(C(=O)N2CCC[C@H]2c2nnc(-c3ccccc3)o2)c1 [compound 439, (5-Methyl-2-[1,2,3]triazol-2-yl-phenyl)-[(S)-2-(5-phenyl-[1,3,4]oxadiazol-2-yl)-pyrrolidin-1-yl]-methanone]	5.85	5.74		
Cc1ccc(-n2nccn2)c(C(=O)N2CCC[C@H]2c2nnc(-c3cccc(Cl)c3C)o2)c1 [compound 440]	7.68	6.85		
Cc1ccc(-n2nccn2)c(C(=O)N2CCC[C@H]2c2nnc(-c3ccccc3C)o2)c1 [compound 441, (5-Methyl-2-[1,2,3]triazol-2-yl-phenyl)-[(S)-2-(5-o-tolyl-[1,3,4]oxadiazol-2-yl)-pyrrolidin-1-yl]-methanone]	6.98	6.02		
Cc1ccc(-n2nccn2)c(C(=O)N2CCC[C@H]2c2nnc(-c3ccccc3OC(F)(F)F)o2)c1 [compound 442, (5-Methyl-2-[1,2,3]triazol-2-yl-phenyl)-{(S)-2-[5-(2-trifluoromethoxy-phenyl)-[1,3,4]oxadiazol-2-yl]-pyrrolidin-1-yl}-methanone]	6.93	6.74		
Cc1nc(C(=O)N2CCC[C@H]2c2nnc(-c3ccccc3OC(F)(F)F)o2)c(-c2cccc(F)c2)s1 [compound 443, [5-(3-Fluoro-phenyl)-2-methyl-thiazol-4-yl]-{(S)-2-[5-(2-trifluoromethoxy-phenyl)-[1,3,4]oxadiazol-2-yl]-pyrrolidin-1-yl}-methanone]	7.35	7.17		
